Structures can show the parent of a compound that is named as a salt.
Experiments:
[1] = tested on: angiotensin-converting enzyme (ACE); test: ACE inhibitory effect in normotensive rats (inhibition of pressor response to angiotensin I); format: in vivo; details: 1 mg/kg directly to the stomach, male Wistar rats, urethane anesthesia, AI/AII ratio
Protocol: ACE Inhibitory effect in normotensive rats
Male Wistar rats weighing 200 to 400 g were anesthetized by the intraperitoneal injection of urethane (1.25 g/kg) and held in the supine position. The degree of inhibition of pressor response to angiotensin (A) I was determined using these rats. The blood pressure was measured with a femoral artery cannula connected to a transducer (product of Nihon Kohden Kabushiki Kaisha, Japan, Model MPU-0.5-290-0-III) and recorded in terms of a mean blood pressure value through a carrier amplifier (product of Nihon Kohden Kabushiki Kaisha, Japan, Model RP-5) on a multipurpose polygraph (product of Nihon Kohden Kabushiki Kaisha, Japan, Model RM-85). The rats were set in an experimental device and left therein for 1 hour to stabilize the hemodynamics. Then experiments were commenced. Since the magnitude of the pressor response to AI varies with time, the ratio of the responses to AI and AII (AI/AII ratio) was used to determine the magnitude of the pressor response to AI which ratio remained more constant. Through the cannulated femoral vein, AI (300 ng/kg) was administered first and AII (300 ng/kg) was given in 5 minutes to measure an AI/AII ratio. At 30 minutes after the first administration of AI, AI (300 ng/kg) was similarly administered and AII (300 ng/kg) was given in 5 minutes, followed by measuring an AI/AII ratio. This procedure was repeated until a constant value of AI/AII ratio was obtained. (The mean value of AI/AII ratios each resulting from the repeated procedure is represented as "C" in an equation to be shown later). At 10 minutes after the final administration of AII, an aqueous solution containing 1 mg/kg of each test compound was given directly to the stomach through a vinyl tube. At 10 minutes after administration of the test compound, AI (300 ng/kg) was given and at 5 minutes later, AII (300 ng/kg) was administered, followed by measurement of the AI/AII ratio (which was represented as "E" in the following equation). An ACE percent inhibition was calculated according to the equation indicated below. [formula]
Subsequently at each time of 60, 120 and 240 minutes after the administration of the test compound, AI (300 ng/kg) was given in the same manner as above and AII (300 ng/kg) was administered in 5 minutes, whereupon an ACE percent inhibition was calculated in the same way.
The results are shown below in Table 26 in which the test compounds listed are those prepared in the Examples indicated therein.

[2] = molecular target: T1, angiotensin-converting enzyme (ACE) (Oryctolagus cuniculus, UniProt P12822); test: Inhibitory activity against angiotensin-converting enzyme (ACE); format: biochemical, rabbit; details: for IC50: enzyme from rabbit lung acetone powder, substrate hippurylhistidyl-leucine, 37° C.
T1 construct: enzyme solution prepared from rabbit lung acetone powder; tissue Sigma Chemical Co., Ltd., U.S.A; host or cells: rabbit lung (acetone powder)
T1 sequence (P12822 34-1310): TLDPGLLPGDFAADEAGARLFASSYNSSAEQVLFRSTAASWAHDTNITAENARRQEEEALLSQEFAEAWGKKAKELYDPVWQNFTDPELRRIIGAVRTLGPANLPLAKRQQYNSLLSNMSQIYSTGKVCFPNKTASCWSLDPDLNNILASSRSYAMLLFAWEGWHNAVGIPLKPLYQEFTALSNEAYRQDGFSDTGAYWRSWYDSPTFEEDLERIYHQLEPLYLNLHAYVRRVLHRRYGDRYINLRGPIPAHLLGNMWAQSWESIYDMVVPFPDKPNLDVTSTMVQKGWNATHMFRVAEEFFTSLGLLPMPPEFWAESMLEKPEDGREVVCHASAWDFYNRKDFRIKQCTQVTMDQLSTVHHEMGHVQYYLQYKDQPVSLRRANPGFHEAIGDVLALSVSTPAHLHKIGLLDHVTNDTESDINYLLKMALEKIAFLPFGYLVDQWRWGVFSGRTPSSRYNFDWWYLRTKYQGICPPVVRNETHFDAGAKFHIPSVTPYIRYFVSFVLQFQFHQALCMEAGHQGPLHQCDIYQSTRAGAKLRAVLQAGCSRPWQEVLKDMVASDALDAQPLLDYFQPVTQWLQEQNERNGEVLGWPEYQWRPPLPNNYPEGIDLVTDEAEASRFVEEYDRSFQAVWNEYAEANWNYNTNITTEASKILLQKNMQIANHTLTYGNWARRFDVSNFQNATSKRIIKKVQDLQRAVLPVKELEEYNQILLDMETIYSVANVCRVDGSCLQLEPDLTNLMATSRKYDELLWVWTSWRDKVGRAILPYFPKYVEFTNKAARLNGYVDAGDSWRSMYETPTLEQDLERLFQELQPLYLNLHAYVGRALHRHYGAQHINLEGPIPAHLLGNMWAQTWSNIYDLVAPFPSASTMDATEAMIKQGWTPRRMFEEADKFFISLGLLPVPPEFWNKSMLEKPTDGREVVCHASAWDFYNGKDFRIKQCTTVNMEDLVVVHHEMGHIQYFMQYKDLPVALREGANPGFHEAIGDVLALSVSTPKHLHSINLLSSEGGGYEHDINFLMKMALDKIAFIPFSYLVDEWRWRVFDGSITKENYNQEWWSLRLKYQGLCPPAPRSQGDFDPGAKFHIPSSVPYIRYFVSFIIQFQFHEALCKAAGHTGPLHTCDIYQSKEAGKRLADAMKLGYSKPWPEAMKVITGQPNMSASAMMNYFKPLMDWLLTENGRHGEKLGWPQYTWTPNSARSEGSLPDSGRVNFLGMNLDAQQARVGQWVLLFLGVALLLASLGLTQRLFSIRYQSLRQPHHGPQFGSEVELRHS
Protocol: Inhibitory activity against angiotensin-converting enzyme (ACE)
A 100 μl quantity of an enzyme solution prepared from rabbit lung acetone powder (product of Sigma Chemical Co., Ltd., U.S.A.) was mixed with 100 μl of a sample solution. The mixture was gently shaken at 37° C. for 10 minutes. To the reaction mixture was added 100 μl of a solution containing 6.99 mM of hippurylhistidyl-leucine (product of Peptide Institute, Inc., Japan) as a substrate. The mixture was reacted at 37° C. for 45 minutes while being shaken. The reaction was terminated by addition of 200 μl of a 1N sulfuric acid aqueous solution to the reaction mixture. Sodium chloride (saturation amount) and diethyl ether (2 ml) were added to the reaction mixture to extract the hippuric acid formed by the reaction. The resulting mixture was vigorously shaken for 15 minutes and centrifuged at 2000 rpm for 5 minutes. A 1.5 ml quantity of the ether layer was separated. After the solvent was distilled off, the residue was redissolved in 1.5 ml of distilled water and the absorbance at 228 nm was measured. A control was prepared by repeating the same procedure as above except that 100 μl of distilled water was used in place of the sample solution.
The inhibitory activity was calculated by deducting the absorbance value of the residue formed by addition of the sample solution from that of the control, and the resulting value was divided by the absorbance value of the control and multiplied by 100, thereby giving a percent inhibition. The inhibitory activity was expressed as IC50, i.e., the concentration of the sample solution in the reaction mixture in which concentration 50% inhibition is achieved.
The test compounds used in the experiment are shown below.

[3] = 15 min. after administration, 1 mg/kg
[4] = 60 min. after administration, 1 mg/kg
[5] = 120 min. after administration, 1 mg/kg
[6] = 240 min. after administration, 1 mg/kg

Row | SMILES | ACE Percent Inhibition, mean ± SD ([1]; 15 min. after administration) | ACE Percent Inhibition, mean ± SD ([1]; 60 min. after administration) | ACE Percent Inhibition, mean ± SD ([1]; 120 min. after administration) | ACE Percent Inhibition, mean ± SD ([1]; 240 min. after administration) | also measured
1 | CCCCCCCSC[C@H](NC(C)C(=O)N1CCC[C@H]1C(=O)OC)C(=O)OCC (stereo partly drawn) [Example 39] | 39 ± 59% | 79 ± 30% | 76 ± 5% | 88 ± 3% | 
2 | CCOC(=O)[C@H](CSCC=C(C)C)NC(C)C(=O)N1CCC[C@H]1C(=O)O (stereo partly drawn) [Example 32] | 15 ± 9% | 31 ± 7% | 33 ± 9% | 29 ± 8% | 
3 | CCCCCSC[C@H](NC(C)C(=O)N1CCC[C@H]1C(=O)O)C(=O)O (stereo partly drawn) [Test Compound 3, N--[(R)--1-carboxy-2-pentylthioethyl]-alanyl-(S)--proline (β-isomer)] |  |  |  |  | ACE inhibitory activity higher than Test Compound No. 4 (fold) ([2]; compared with Test Compound No. 4): about 122 times; IC50 [2]: 0.104 nM
4 | CCCCCCC(SC[C@H](NC(C)C(=O)N1CCC[C@H]1C(=O)O)C(=O)OCC)C(=O)OCC (stereo partly drawn) [Ex. No. 71*^ 3] |  |  |  |  | ACE Percent Inhibition, mean ± SD [1, 3]: 39 ± 34%; ACE Percent Inhibition, mean ± SD [1, 4]: 65 ± 14%; ACE Percent Inhibition, mean ± SD [1, 5]: 60 ± 2%; ACE Percent Inhibition, mean ± SD [1, 6]: 67 ± 3%
5 | CCCCCCCSC[C@H](NC(C)C(=O)N1CCC[C@H]1C(=O)OCC)C(=O)OCC (stereo partly drawn) [Example 40] | 37 ± 19% | 55 ± 18% | 57 ± 13% | 70 ± 9% | 
6 | CSCC[C@H](NC(C)C(=O)N1CCC[C@H]1C(=O)O)C(=O)O (stereo partly drawn) [Test Compound 4, N--[(S)--1-carboxy-3-methylthiopropyl]-(R,S)--alanyl-(S)--proline, reference compound] |  |  |  |  | IC50 [2]: 12.7 nM
7 | CCCCCCC(SC[C@H](NC(C)C(=O)N1CCC[C@H]1C(=O)O)C(=O)OCC)C(=O)OCC (stereo partly drawn) [Ex. No. 71*^4] |  |  |  |  | ACE Percent Inhibition, mean ± SD [1, 3]: 47 ± 24%; ACE Percent Inhibition, mean ± SD [1, 4]: 69 ± 6%; ACE Percent Inhibition, mean ± SD [1, 5]: 70 ± 10%; ACE Percent Inhibition, mean ± SD [1, 6]: 60 ± 10%
8 | CCCCCCCCSC[C@H](NC(C)C(=O)N1CCC[C@H]1C(=O)O)C(=O)OCC (stereo partly drawn) [Example 81, N-[(R)-1-ethoxycarbonyl-2-octylthio-ethyl]-alanyl-(S)-proline (β-isomer).L-arginine salt] | 14 ± 17% | 43 ± 18% | 47 ± 11% | 55 ± 6% | 
9 | CCCCCCCSC[C@H](NC(C)C(=O)N1CCC[C@H]1C(=O)O)C(=O)OCC (stereo partly drawn) [Example 18, N-[(R)-1-ethoxycarbonyl-2-heptylthioethyl]-alanyl-(S)-proline (β-isomer) and maleate] | 77 ± 8% | 75 ± 23% | 84 ± 10% | 63 ± 6% | 
10 | CCCCCCSC[C@H](NC(C)C(=O)N1CCC[C@H]1C(=O)O)C(=O)OCC (stereo partly drawn) [Example 5, N-[(R)-1-ethoxycarbonyl-2-hexylthioethyl]-alanyl-(S)-proline(β-isomer) and L-arginine salt thereof] | 28 ± 14% | 54 ± 3% | 54 ± 17% | 55 ± 7% | 
11 | CCOC(=O)[C@H](CSCC1CCCCC1)NC(C)C(=O)N1CCC[C@H]1C(=O)O (stereo partly drawn) [Example 21] | 22 ± 25% | 38 ± 29% | 58 ± 15% | 56 ± 14% | 
12 | CCCCCCCSC[C@H](NC(C)C(=O)N1CCC[C@H]1C(=O)OCc1ccccc1)C(=O)OCC (stereo partly drawn) [Example 42] | 27 ± 1% | 17 ± 18% | 57 ± 7% | 66 ± 7% | 
13 | CCCCCC(SC[C@H](NC(C)C(=O)N1CCC[C@H]1C(=O)O)C(=O)OCC)C(=O)OCC (stereo partly drawn) [Ex. No. 67*^1] |  |  |  |  | ACE Percent Inhibition, mean ± SD [1, 3]: 23 ± 35%; ACE Percent Inhibition, mean ± SD ([1]; 15 min. after administration, listed as Ex. No. 67*^2, 1 mg/kg): 46 ± 29%; ACE Percent Inhibition, mean ± SD [1, 4]: 55 ± 11%; ACE Percent Inhibition, mean ± SD ([1]; 60 min. after administration, listed as Ex. No. 67*^2, 1 mg/kg): 76 ± 10%; ACE Percent Inhibition, mean ± SD [1, 5]: 59 ± 4%; ACE Percent Inhibition, mean ± SD ([1]; 120 min. after administration, listed as Ex. No. 67*^2, 1 mg/kg): 61 ± 14%; ACE Percent Inhibition, mean ± SD [1, 6]: 63 ± 9%; ACE Percent Inhibition, mean ± SD ([1]; 240 min. after administration, listed as Ex. No. 67*^2, 1 mg/kg): 65 ± 7%
